The source of these data is patent publication US9023354B2, “Combination therapy with MDM2 and EFGR inhibitors” (priority 2010, dated 2015).

The test system of data set [1] is apoptosis-related proteins in A549 cells. Description: Proteome profile of apoptosis-related proteins. The conditions noted are these: 5 μM. Type of data set: cell-based, human. The text has this: This example describes an assay that measured the relative expression levels of 35 apoptosis-related proteins in a single sample of whole cell extract. Methods are according to Examples 1-2 unless otherwise specified.
The protocol and reagents were purchased from R&D systems (Human apoptosis array kit; cat. #ARY009). The kit consisted of an antibody array spotted on nitrocellulose membranes with each specific antibody printed in duplicate. The detection antibodies were biotinylated so they could be used with a streptavidin-HRP conjugate designed for chemiluminescent imaging. The protocol was modified to utilize the LiCor infrared imaging technology by substituting an infrared 680 nm-tagged streptavidin.
The following day, two μl of compound dilutions in 100% DMSO were added to the appropriate wells resulting in a final concentration of 5 μM. The plates were then incubated for 6 hours at 37° C., 5% CO2, and 85% relative humidity. Following incubation, the cells were washed with 2 ml of PBS, then lysed with 500 μl/well of Lysis buffer, supplemented with a 1/200 dilution of mammalian protease inhibitor cocktail (Sigma Aldrich). The plates were shaken for 30 min at room temperature, spun @ 14,000×g for 5 minutes. 250 μl of the supernatant was removed and added to 1.25 ml of Assay buffer 1. The supernatant and Assay buffer 1 were incubated with membranes overnight at room temperature with shaking.
The following day, the membranes were washed 3 times for 10 min each, with 1× wash buffer in individual 50 ml Falcon tubes at room temperature with rotation. The membranes were incubated with a 1/100 dilution of biotinylated detection antibodies for 3 hours at room temperature with shaking.
The membranes were washed, then incubated with a 1/1000 dilution of IR 680 nm-labeled streptavidin (LiCor) for 60 minutes with shaking in the dark. The membranes were again washed. Excess buffer was blotted from membranes, placed between two pieces of transparent plastic and imaged on the LiCor infrared imager. The LiCor Odyssey software is used to quantitate the pixel intensity of each spot in the array.
First, several compounds were evaluated in a proteome profiling array system containing antibodies to 35 apoptosis-related proteins. In this assay (see Example 3), the relative expression levels of these proteins in cell extracts are measured from treated and non-treated A549 cells.

The test system of data set [2] is A549 cells. Description: DNA fragmentation (Cell Death Detection ELISA), measurement of apoptosis. The conditions noted are these: Homo sapiens. A general note: An ELISA detects its analyte on a solid surface through an enzyme-linked reagent.
Description: The plates were allowed to incubate overnight @ 37° C., 5% CO2. On day 2, the media was removed from the plates and 160 μl media containing 5% FBS was added. 40 μl of media-containing test compound in 100% DMSO (prepared at 5× the dosing concentration) was added to the existing media resulting in a final DMSO concentration of 0.5%. Cells were incubated in the presence of a compound for 24 hrs @ 37° C., 5% CO2.
After 24 hrs, the abovementioned plates were centrifuged at 200×g for 10 min. The media was removed by gently inverting the plate and disposing of the media onto a paper towel. The plates were tapped gently to remove excess media. 200 μl lysis buffer was added to each well, and mixed by shaking at 300 rpm. The plates were incubated at room temperature for 30 min. The plates were centrifuged at 200×g for 10 min and 20 μl of lysis supernatant was removed for use in ELISA analysis to detect cell death.
20 μl of the cell lysis supernatant was placed into streptavidin-coated plates with 20 μl positive control and 20 μl incubation buffer negative control. Add 80 μl Immunoreagent (for DNA fragment detection) to each well. The wells were covered with foil adhesive and shaken at 300 rpm for 2 h at room temperature. The supernatant solution was removed and the wells were washed 3 times with 300 μl incubation buffer. 100 μl of ABTS detection substrate was added to each well. The wells were incubated on a plate shaker at 250 rpm for approximately 10-20 min. 100 μl ABTS of stop buffer was then added. […] The absorbance measures the colored product spectrophotometrically, correlating with apoptosis.
The percent increase in DNA fragmentation produced by compounds at a concentration of 1 and 10 μM were compared to background, and to the response produced by 500 nM staurosporin.
Data set [3] deals with A431 cells. Description: A431 cell proliferation assay (MTT), alone and in combination with Tarceva. Type of data set: cell-based. As to conditions: for A431 Cell Proliferation CI Value: combination with Tarceva, CI <0.8 indicates synergy, Example 9, Table 7B.
Data set [4] can be described thus: Stability toward liver microsome incubation. Type of data set: in vitro ADME. (In general: Microsomes from liver hold many membrane-bound enzymes, among them those of drug oxidation.)
For data set [5], the system named is p53-induced reporter gene activity. Description: p53 reporter gene assay in HEK293 cells. Type of data set: cell-based. As to conditions: 10 μM. As for the experimental part: This example describes an assay that measures the ability of compounds to stimulate p53-induced reporter gene activity. In order for p53 activity to be observed, the interaction of p53 with MDM2 must be inhibited. Methods are according to Examples 1-5 unless otherwise specified.
HEK293 cells were transiently transfected with the inducible p53-responsive firefly luciferase reporter and constitutively-expressing Renilla construct. After 16 hrs of transfection at 37° C., 5% CO2, the transfection media was removed and 200 μl/well of assay media was added. The cells were then incubated for 8 hrs at 37° C., 5% CO2.
[…] of compound(s) was added to the cells and incubated for 16 hrs at 37° C. and 5% CO2. The cells were carefully washed with 200 μl of PBS. 20 μl_of lysis buffer was then added to each well and incubated at room temperature for 15 minutes with shaking.
The lysis buffer supernatant was transferred to a white/opaque CoStar 96-well plate and 100 μl of firefly luceriferase assay substrate was added. The luminescence in each well was determined using a Polarstar plate reader.
100 μl of Stop and Glow reagent was added to each well, mixed, and the luminescence generated by the Renilla luciferase was determined using a Polarstar plate reader. The Renilla signal was used to normalize the transfection efficiency and cell viability.
(In general: A reporter such as luciferase makes a cellular process visible.)

[6] abbreviates: A549, read-out: % Inc. Relative to Staurosporin (500 nM), DNA fragmentation.
Setting [7] is: A549, read-out: % Inc. over Background, DNA fragmentation.
[8] abbreviates: Homo sapiens, A-431, A431 cells, further studies, Example 9, Table 7A, read-out: A431 Cell Proliferation (IC50 Value).

Like-named read-outs stand apart in the source and are kept apart here.

Turning to `CCc1cc(Cl)cnc1NC(c1ccc(Cl)cc1)c1ccc2cccnc2c1O` (centres unmarked) [AD4-13225], in data set [1], the “phosphorylated forms of p53” value is given as “increased all three phosphorylated forms of p53”. Besides, the results for the activation at 1 µM in data set [2] (setting [6]) and in data set [2] (setting [7]) were 48% and 508%, respectively. In addition, the activation at 10 µM was found to be 42% in data set [2] (setting [6]) and 458% in data set [2] (setting [7]).
With `Cc1cc(Cl)cnc1NC(c1ccc(Cl)cc1Cl)c1ccc2cccnc2c1O` (centres unmarked) [AD4-13130], the “phosphorylated forms of p53” value in data set [1] is “increased all three phosphorylated forms of p53”. Moreover, in data set [2] (setting [6]), the activation at 1 µM is 58% and the activation at 10 µM is 65%. Also, in data set [2] (setting [7]), the activation at 1 µM worked out at 565% and the activation at 10 µM amounted to 614%.
For the compound `Oc1c(C(Nc2ccc(Cl)cn2)c2ccc(C(F)(F)F)cc2)ccc2cccnc12` (centres unmarked) [AD4-13053], the “A431 Cell Proliferation CI Value” in data set [3] turned out to be 0.78. Further, the “stability (toward liver microsome incubation)” value (shortened to “stability”) in data set [4] is listed as “increased stability over AD4-10628”.
Turning to `Cc1cc(Cl)cnc1NC(c1ccc(C(F)(F)F)cc1)c1ccc2cccnc2c1O` (centres unmarked) [AD4-13041], in data set [3] (setting [8]), the IC50 turned out to be 2000 nM. The “A431 Cell Proliferation CI Value” in data set [3] is 0.69. Further, the “stability” value in data set [4] is on record as “increased stability over AD4-10628”.
`Cc1cc(Cl)cnc1NC(c1ccc(Cl)c(F)c1)c1ccc2cccnc2c1O` (centres unmarked) [AD4-13229]: the “phosphorylated forms of p53” value in data set [1] is “increased all three phosphorylated forms of p53”. In data set [2] (setting [6]), the activation at 1 µM worked out at 68% and the activation at 10 µM is 84%. In data set [2] (setting [7]), the activation at 1 µM turned out to be 531% and the activation at 10 µM came out at 667%.
On to `Cc1nc(NC(c2ccc(Cl)cc2Cl)c2ccc3cccnc3c2O)c(Cl)cc1Cl` (centres unmarked) [AD4-13206], for which the “stability” value in data set [4] is “increased stability”.
Regarding `CCOc1ccc(C(Nc2ccccn2)c2cc(Cl)c3cccnc3c2O)cc1` (centres unmarked) [AD4-10953], in data set [5], the “stimulation of p53 reporter gene activity” value came to 9.7 fold.
`Cc1ccc(C)c(C(Nc2cccnc2)c2cc(Cl)c3cccnc3c2O)c1` (centres unmarked) [AD4-10944]: the IC50 in data set [3] (A431 cells, further studies, Example 9, Table 7A, read-out: A431 Cell Proliferation (IC50 Value)) turned out to be 1800 nM; in data set [3] (A431 cells, preliminary assessment, Example 8, Table 6A, read-out: A431 Cell Proliferation (IC50)), 1800 nM. Also, in data set [5], the “stimulation of p53 reporter gene activity” value is on record as 7.5 fold.
In the case of `Oc1c(C(Nc2cc(Cl)c(Cl)cn2)c2ccc(Cl)cc2Cl)ccc2cccnc12` (centres unmarked) [AD4-13178], the “phosphorylated forms of p53” value in data set [1] is reported as “increased all three phosphorylated forms of p53”. The activation at 10 µM in data set [2] (setting [6]) came to 68%. Further, in data set [2] (setting [7]), the activation at 1 µM came to 395% and the activation at 10 µM is 581%.
As for `Oc1c(C(Nc2ncc(C(F)(F)F)cc2F)c2ccc(Cl)cc2Cl)ccc2cccnc12` (centres unmarked) [AD4-13165], the “phosphorylated forms of p53” value in data set [1] was “increased all three phosphorylated forms of p53”. Moreover, in data set [4], the “stability” value is on record as “increased stability”. For the same compound, the activation at 1 µM in data set [2] (setting [6]) is 24%; in data set [2] (setting [7]) it was 172%. For the same compound, the results for the activation at 10 µM in data set [2] (setting [6]) and in data set [2] (setting [7]) were 74% and 582%, respectively.
Take `Cc1cc(Cl)cnc1NC(c1ccc(C(F)(F)F)cc1F)c1ccc2cccnc2c1O` (centres unmarked) [AD4-13042]: the IC50 in data set [3] (setting [8]) was 2200 nM. Besides, the “A431 Cell Proliferation CI Value” in data set [3] came out at 0.81. The “stability” value in data set [4] is recorded as “increased stability”.
